Experimental data taken from US7897369B2, “Isoprenoid wax ester synthases, isoprenoid acyl CoA-synthetases, and uses thereof” (Regents of the University of Minnesota, priority 2007, dated 2011).

Tests used:
Type in all cases: biochemical, Marinobacter hydrocarbonoclasticus DSM 8798
WS2 = WS2 (Marinobacter nauticus, UniProt A3RE51); experiment: Coupled enzyme assay, WS substrate profile (TLC); parameters: key to WE formation (spot intensity of wax ester products on TLC), WS2, C16 / WE formation (spot intensity of wax ester products on TLC), WS2, Phytol / WE formation (spot intensity of wax ester products on TLC), WS2, Farnesol / WE formation (spot intensity of wax ester products on TLC), WS2, C10 / WE formation (spot intensity of wax ester products on TLC), WS2, C12 / WE formation (spot intensity of wax ester products on TLC), WS2, C14: no activity (−); ranging from no activity (−) to most active (+++); ranging from no activity (−) to most active (+++); most active (+++)
WS2, sequence (A3RE51 entry or part of it): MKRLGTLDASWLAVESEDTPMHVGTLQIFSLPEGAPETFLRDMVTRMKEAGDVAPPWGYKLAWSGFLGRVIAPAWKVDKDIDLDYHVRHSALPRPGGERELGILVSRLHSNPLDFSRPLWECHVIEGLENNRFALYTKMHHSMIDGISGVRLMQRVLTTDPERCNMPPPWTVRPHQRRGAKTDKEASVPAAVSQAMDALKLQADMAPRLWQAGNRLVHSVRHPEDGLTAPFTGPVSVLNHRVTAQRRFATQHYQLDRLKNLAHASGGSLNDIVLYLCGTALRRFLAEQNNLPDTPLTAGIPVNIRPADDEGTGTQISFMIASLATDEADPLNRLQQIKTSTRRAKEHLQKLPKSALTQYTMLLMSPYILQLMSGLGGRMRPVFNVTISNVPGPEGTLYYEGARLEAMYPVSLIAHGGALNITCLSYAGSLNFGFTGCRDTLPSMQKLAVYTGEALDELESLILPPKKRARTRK
Method: (§1) Stock solutions of various substrates were prepared in 50 mM Tris-HCl buffer (pH 8) containing 1% gum arabic, 12.5 μg bovine serum albumin ml^−1, 0.1% taurocholate, and either 100 mM fatty acid, isoprenoid acid, fatty alcohol, or isoprenoid alcohol. Stock solutions were sonicated to disperse the substrates. Substrate profiles of the three WS were tested using coupled enzyme in vitro reactions in which the CoA synthetases Acs1 and Acs2 are added to synthesize the CoA-activated fatty acid phytanic acid substrates from corresponding acid precursors for the WS reactions. Assays were carried out in 500-μl reactions containing in 50 mM Tris-HCl buffer (pH 8.0), 12.5 μl of each acid, and alcohol substrate stock solution (final concentrations of each substrate of 250 μM), 10 mM MgCl2, 10 mM CoASH, 10 mM ATP, 5 mM TCEP, 0.1 U of inorganic pyrophosphatase, 0.25 μg of Acs1 and Acs2 CoA synthetase, and 0.5 μg of WS to be tested. Assays were incubated at 37° C. overnight before thin-layer chromatography (TLC) analysis of the reaction products.
(§2) In vitro WS assay samples were extracted with 500 μl of chloroformmethanol (1:1 [vol/vol]), and extracts were analyzed by TLC with Whatman normal phase silica gel 60 plates and developed using hexane-diethyl ether-acetic acid (90:10:1 [vol/vol/vol]). TLC plates were stained with either iodine vapor or anisaldehyde solution as described earlier (Jork et al., 1990. Thin-layer chromatography reagents and detection methods, vol. 1a. Physical and chemical detection methods: fundamentals, reagents. VHC, Weinheim, Germany). Palmitoyl palmitate and triolein were used as WE and TAG reference compounds, respectively.

WS3 = experiment: Coupled enzyme assay, WS substrate profile (TLC); settings: coupled reaction; palmitic acid with hexadecanol, phytanic acid with phytol
Method: as §1
In vitro WS assay samples were extracted with 500 μl of chloroformmethanol (1:1 [vol/vol]), and extracts were analyzed by TLC with Whatman normal phase silica gel 60 plates and developed using hexane-diethyl ether-acetic acid (90:10:1 [vol/vol/vol]). […]

Acs2 = experiment: CoA synthetase assay (HPLC, LC-MS); settings: 10 mM acid, 20 min at 37° C.
Method: (§3) In vitro reactions were performed as described previously (Trivedi et al., 2004, Nature, 428:441-445) with some modifications. CoA synthetase assays were carried out in 250-μl reaction volumes containing 50 mM Tris-HCl buffer (pH 7.5), 0.1% Triton X-100, 10 mM MgCl2, 5 mM TCEP, 0.1 U of inorganic pyrophosphatase, and as substrates 10 mM phytanic or fatty acids, 10 mM reduced coenzyme A (CoASH), 10 mM ATP, and 0.5 μg of purified Acs (either 1, 2, 3, or 4) protein. The reactions were incubated for 20 min at 37° C. and stopped with 25 μl of 5% acetic acid, followed by HPLC analysis of the reaction products.
(§4) CoA-synthetase assay samples (25 μl) were resolved on an Agilent 1100 HPLC (Agilent Technologies, Palo Alto, Calif.) equipped with a photodiode array detector set to 259 nm. Samples were separated on a reversed-phase Eclipse XDB-C8 column (Agilent Technologies) at a flow rate of 1 ml min^−1. Solvent A consisted of 20 mM ammonium acetate (pH 5.4) in HPLC-grade water, and solvent B contained acetonitrile and methanol (85:15 [vol/vol]). Acyl-CoA and phytanoyl-CoA products were eluted using the following conditions: solvent A-solvent B at 65:35 from 0 to 5 min, followed by a gradient from solvent A-solvent B at 65:35 to 100% solvent B in 30 min. Liquid chromatography-mass spectrometry (LC-MS) analyses of reaction products were done with an LCQ mass spectrophotometer equipped with an electrospray ionization source (ESI) (Thermo Finnigan). Mass fragmentation spectra were monitored in a mass range of m/z 400 to 1,500 with a negative ESI interface.

Acs4 = experiment: CoA synthetase assay (HPLC, LC-MS); settings: 10 mM acid, 20 min at 37° C.
Method: as §3, §4

Acs3 = experiment: CoA synthetase assay (HPLC, LC-MS); settings: 10 mM acid, 20 min at 37° C.
Method: as §3, §4

WS1 = experiment: Coupled enzyme assay, WS substrate profile (TLC); parameters: key to WE formation (spot intensity of wax ester products on TLC), WS1, C10 / WE formation (spot intensity of wax ester products on TLC), WS1, C12 / WE formation (spot intensity of wax ester products on TLC), WS1, C14 / WE formation (spot intensity of wax ester products on TLC), WS1, C16 / WE formation (spot intensity of wax ester products on TLC), WS1, Phytol / WE formation (spot intensity of wax ester products on TLC), WS1, Farnesol: no activity (−); ranging from no activity (−) to most active (+++); ranging from no activity (−) to most active (+++); most active (+++)
Method: as §1, §2

[1] = alcohol farnesol, 12 h at 37° C., each substrate 250 μM
[2] = alcohol phytol, 12 h at 37° C., each substrate 250 μM
[3] = coupled reaction, palmitic acid with hexadecanol, phytanic acid with phytol, phytanoyl-CoA with the alcohols named in the value
[4] = fatty alcohol C10, 12 h at 37° C., each substrate 250 μM
[5] = fatty alcohol C12, 12 h at 37° C., each substrate 250 μM
[6] = fatty alcohol C14, 12 h at 37° C., each substrate 250 μM
[7] = fatty alcohol C16, 12 h at 37° C., each substrate 250 μM

Structure (SMILES): CCCCCCCCCCCCCCCC(=O)O [C16, palmitic acid]
- WE formation (spot intensity of wax ester products on TLC), WS2, Farnesol (WS2; [1]): ++
- WE formation (spot intensity of wax ester products on TLC), WS2, Phytol (WS2; [2]): +
- WE product formation by WS2 (TLC), in words (WS2; [3]): Products were observed
- WE formation (spot intensity of wax ester products on TLC), WS2, C10 (WS2; [4]): +
- WE formation (spot intensity of wax ester products on TLC), WS2, C12 (WS2; [5]): +
- WE formation (spot intensity of wax ester products on TLC), WS2, C14 (WS2; [6]): ++
- WE formation (spot intensity of wax ester products on TLC), WS2, C16 (WS2; [7]): +++
- WE product formation by WS3 (TLC), in words (WS3): no products were observed
- CoA activation by Acs2 (Acs2): most activity
- CoA activation by Acs4 (Acs4): most activity
- CoA activation by Acs3 (Acs3): most activity
- WE formation (spot intensity of wax ester products on TLC), WS1, Farnesol (WS1; [1]): ++
- WE formation (spot intensity of wax ester products on TLC), WS1, Phytol (WS1; [2]): +
- WE product formation by WS1 (TLC), in words (WS1; [3]): Products were observed
- WE formation (spot intensity of wax ester products on TLC), WS1, C10 (WS1; [4]): +
- WE formation (spot intensity of wax ester products on TLC), WS1, C12 (WS1; [5]): ++
- WE formation (spot intensity of wax ester products on TLC), WS1, C14 (WS1; [6]): +
- WE formation (spot intensity of wax ester products on TLC), WS1, C16 (WS1; [7]): +++
